# In patent US20020028851A1, “Guanylhydrazones and their use to treat inflammatory conditions” (priority 1994, published 2002):
# What was measured:
# [1] = Solubility on preparing test solutions; type: physicochemical; conditions: preparation of test solutions
# Description: (§1) Various concentrations of the test compounds are included in the media of the stimulated RAW 264.7 cells in culture. The concentration of urea and/or nitrite after 18 hours of activated culture is determined and compared to the uninhibited control value obtained from at least one parallel culture. The fractional reduction is calculated for each concentration of inhibitor and the IC50 (concentration giving 50% reduction) is interpolated. Compounds were dissolved in media with mild heat (60° C.). Those with limited solubility were dissolved in base. The concentration of stock solutions of those compounds which were not completely soluble was determined by OD280.
# RAW 264.7 cells [2] = assay: Whole cell inhibition assay for urea output; type: cell-based, murine; conditions: for IC50: Mus musculus, RAW264.7, interpolated, γIFN+LPS-activated RAW 264.7, 18 hours, read-out: I.C.50 (in parenthesis), inhibition of urea production; for urea % suppression of induced production: γIFN+LPS, 18 hours
# Description: (§2) RAW 264.7 cells are plated in microculture wells at 1×10^6/ml in RPMI 1640 with 10% FBS and otherwise standard culture conditions and allowed to adhere for 5 hours. They are then activated with 25 U/ml γIFN and 0.1 μg/ml LPS in the presence of test inhibitors. The urea concentration present in the supernatant media, after 18 hours of culture, is determined by a colorimetric blood urea nitrogen diacetylmonoxime assay performed on an aliquot of the culture supernatant (Sigma Chem. Co., St. Louis, Mo.) and inhibition is expressed as the percentage urea compared to that of a parallel control culture treated identically except that the concentration of added inhibitor is zero.
# as §1
# RAW 264.7 cells [3] = assay: Whole cell inhibition assay for NO (nitrite) output; type: cell-based, murine; conditions: γIFN+LPS, 18 hours
# Description: as §2
# The production of nitrite is determined by assay of the same tissue culture supernatant by means of a calorimetric assay. Briefly, 4 parts of test solution containing 1% (w/v) sulfanilamide, 0.1% naphthylethylenediamine di-HCl (Griess Reagent), 2.5% H3PO4 and one part media are mixed, incubated for 10 minutes and the absorbance at 560 nm determined. The nitrite concentrations are interpolated from reference curves prepared using NaNO2.
# as §1
# (§3) This section describes experiments that measure the concentration of Compound No. 14 needed to inhibit arginine uptake and NO output. The techniques employed were described in section 7.1 supra.
# RAW 264.7 cells [4] = assay: Whole cell inhibition assay for arginine uptake; type: cell-based, murine; conditions: γIFN+LPS, 8 hours
# Description: In the embodiment described in the working example herein, a test population of cells was cultured for about 3 hours so that the cells became firmly adherent. Various concentrations of the potential inhibitors were then added to parallel cultures. One hour later the macrophage stimulators, e.g. including, but not limited to LPS and γIFN, were added. Eighteen hours later the cells were washed in a warm balanced salt solution supplemented with glucose. Carrier-free radiolabelled arginine was added; after 5 minutes, active uptake of arginine was stopped by washing the cell three times with buffer, chilled to 0° C., containing 10 mM unlabeled arginine to displace any externally bound label. The contents of the washed cells are solubilized in 100 μl of formic acid and counted by standard techniques.
# RAW 264.7 cells are plated in standard 96-well microculture plates at a concentration of 10^5/well and allowed to adhere for from 2 hours to overnight. The medium is then replaced with medium containing the compound to be tested. One hour later, the medium is supplemented so as to contain 25 U/ml γIFN and 0.1 μg/ml LPS and the cultures incubated a further. The cells are then rinsed twice in HEPES- buffered Krebs salt solution with 0.1% glucose. Carrier-free tetra-^3H-arginine is added to each well (2.5 μCi/well with specific activity of […]) and the active uptake of arginine is allowed to continue for a 5 minute period after which the cells are rapidly cooled to 0° C. by lavage with iced saline containing 10 mM unlabeled arginine to displace any externally bound label. The contents of the washed cells are solubilized in 100 Al of formic acid and counted by standard techniques. In subsequent experiments to determine the acitivity of the inhibitors, incubations were performed for 8 hours.
# as §3
# TNF = TNF production by LPS/γIFN-stimulated RAW 264.7 cells; type: cell-based, murine; conditions: even at concentrations of 10 μM
# Description: RAW 264.7 cells were plated in standard 6-well culture plates at a density of 10^6/well and allowed to adhere for from 2 hr to overnight. The medium was then replaced with medium containing the compound to be tested. One hour later, the medium was supplemented so as to contain 25 U/ml γIFN and 0.1 μg/ml LPS and the cultures incubated a further 18 hr. The medium was then collected, and cell debris removed by centrifugation. This conditioned supernatant was then assayed for the presence of TNF using standard methodologies: L929 cell cytotoxicity bioassay, radioimmunoassay or ELISA, and Western blotting with antibodies against murine TNF.
# [5] = tested on: Endothelial Derived Relaxing Factor (EDRF) activity; assay: Acetylcholine-induced hypotensive (EDRF) response; type: in vivo, rats; conditions: 10 mg/Kg single intra-arterial dose; blood pressure 30 sec after ACh
# Description: Female Sprague-Dawley rats (225-250 g body weight) were anesthetized with nembutal (50 mg/Kg, i.p.), a tracheostomy tube was inserted, and the carotid artery and jugular vein cannulated by standard methods using polyethylene tubing (PE 50). Tracey, K. J., et al., 1986, SCIENCE 234, 470-474. Blood pressure was recorded continuously with a pressure transducer and recorder (Model RS-3200, Gould Inc.,). In the experiment shown here, animals received a single sterile intra-arterial dose of either N^G-methyl-L-arginine (NMA; Sigma; 10 mg/Kg), Compound No. 14 (50 mg/Kg), or vehicle (0.4 ml). Acetylcholine (ACh) diluted in LPS-free sterile water was administered via the jugular vein cannula at the doses indicated. The solutions were diluted to produce a constant injectable volume of 1 ml/Kg body weight.
# The hypotensive (EDRF) response was measured as the decline in mean arterial blood pressure recorded 30 sec after administration of ACh. The number of animals studied at each dose of acetylcholine was 4-6 for each experimental condition; data are expressed as the mean +s.e.m.
# [6] = dose 23.3 (dose unit not given)
smiles,measurement,setting,value
"COc1cc(C=NNC(=N)N)ccc1OCCOc1ccc(C=NNC(=N)N)cc1OC.Cl.Cl [Compound 17, 4,4′-(ethylenedioxy)di-m-anisaldehyde bis(amidinohydrazone) dihydrochloride]",melting point,,322 to 323 °C (dec.)
same,Dissolved in (solubility),[1],Not soluble
same,IC50,RAW 264.7 cells [2],150 µM
same,urea % suppression of induced production,RAW 264.7 cells [2]; dose 177 μM,54-100%
same,no2/no3 % suppression of induced production,RAW 264.7 cells [3]; dose 177 μM,71-87%
"Cl.Cl.N=C(N)NN=Cc1cccc(OCCOc2cccc(C=NNC(=N)N)c2)c1 [Compound 16, 3,3′-(ethylenedioxy)dibenzaldehyde bis(amidinohydrazone) dihydrochloride]",melting point,,264 to 266 °C
same,Dissolved in (solubility),[1],Not soluble;
same,IC50,RAW 264.7 cells [2],1 to 10 µM
same,urea % suppression of induced production,RAW 264.7 cells [2]; dose 5 μM,40%
same,urea % suppression of induced production,RAW 264.7 cells [2]; dose 25 μM,100%
same,urea % suppression of induced production,RAW 264.7 cells [2]; dose 250 μM,100%
same,arginine transport % suppression of induced peak,RAW 264.7 cells [4]; dose 5 μM,26%
same,arginine transport % suppression of induced peak,RAW 264.7 cells [4]; dose 25 μM,44%
same,arginine transport % suppression of induced peak,RAW 264.7 cells [4]; dose 250 μM,100%
same,no2/no3 % suppression of induced production,RAW 264.7 cells [3]; dose 5 μM,17%
same,no2/no3 % suppression of induced production,RAW 264.7 cells [3]; dose 25 μM,90%
same,no2/no3 % suppression of induced production,RAW 264.7 cells [3]; dose 250 μM,100%
"CNC(=N)NCCC[C@H](N)C(=O)O [NMA, N^G-methyl-L-arginine, reference compound]",inhibition of the production of TNF,TNF,did not inhibit
same,acetylcholine-induced EDRF activity in vivo,[5],inhibited
"COc1ccc(C=NNC(=N)N)cc1OCCCOc1cc(C=NNC(=N)N)ccc1OC.Cl.Cl [Compound 18, 3,3′-(trimethylenedioxy)di-p-anisaldehyde bis(amidinohydrazone) dihydrochloride]",melting point,,233 to 235 °C
same,Dissolved in (solubility),[1],Not soluble
same,IC50,RAW 264.7 cells [2],25 µM
same,urea % suppression of induced production,RAW 264.7 cells [2]; dose 233 μM,100%
same,urea % suppression of induced production,RAW 264.7 cells [2]; dose 7.7 (dose unit not given),9%
same,urea % suppression of induced production,RAW 264.7 cells [2]; [6],30%
same,no2/no3 % suppression of induced production,RAW 264.7 cells [3]; dose 233 μM,100%
same,no2/no3 % suppression of induced production,RAW 264.7 cells [3]; dose 7.7 (dose unit not given),0%
same,no2/no3 % suppression of induced production,RAW 264.7 cells [3]; [6],13%
